This is an account of results in ChEMBL document CHEMBL1124939, “Synthesis of thromboxane receptor antagonists with bicyclo[3.1.0]hexane ring systems” (J Med Chem, 1990).

Format in all cases: functional
The species entered for experiment [1] is Rattus norvegicus. Nature of the experiment: The partial agonistic activity (shape change of rat WP) induced by test compound at 1 uM was calibrated for that of S-145.
The species entered for another experiment is Oryctolagus cuniculus. Briefly: Tested for the inhibitory activity against aggregation of rabbit platelet-rich plasma (PRP) induced by 500 uM of arachidonic acid.
The species entered for experiment [2] is Rattus norvegicus. Briefly: Tested for the inhibitory activity against aggregation of rat washed platelets (WP) induced by 4 micro g/mL of collagen.

In the experiment listed under Rattus norvegicus [1], `O=C(O)CCC/C=C\C[C@H]1[C@@H]2CCC(C2)[C@@H]1NS(=O)(=O)c1ccccc1` showed a Relative agonist activity of 100. In addition, the IC50 (in general, the point on the concentration scale where inhibition reaches its midpoint) is 1000 nM in the experiment filed under Oryctolagus cuniculus and 1 nM in the experiment filed under Rattus norvegicus [2].
In the experiment listed under Rattus norvegicus [1], `O=C([O-])CCC/C=C\C[C@H]1C2CC2C[C@H]1NS(=O)(=O)c1ccccc1.[Na+]` (mixture of isomers) registered a Relative agonist activity of 33. The IC50 came to 37800 nM in the experiment listed under Oryctolagus cuniculus and 25 nM in the experiment filed under Rattus norvegicus [2].
On the same counts, the results for `O=C([O-])CCC/C=C\C[C@H]1C2O[C@H]2C[C@H]1NS(=O)(=O)c1ccccc1.[Na+]` (mixture of isomers) are 26, 49100 nM and 23 nM.
On the same counts, the results for `O=C([O-])CCC/C=C\C[C@H]1C2O[C@H]2C[C@@H]1NS(=O)(=O)c1ccccc1.[Na+]` (mixture of isomers) are 82, 2600 nM and 4 nM.
On the same counts, the results for `O=C([O-])CCC/C=C\C[C@H]1C2OC2C[C@@H]1NS(=O)(=O)c1ccccc1.[Na+]` (mixture of isomers) are 0, 391000 nM and 100 nM.
On to `O=C([O-])CCC/C=C\C[C@H]1[C@@H]2C[C@@H]2C[C@@H]1NS(=O)(=O)c1ccccc1.[Na+]` (racemic), for which the Relative agonist activity in the experiment filed under Rattus norvegicus [1] is 22. The IC50 in the experiment listed under Oryctolagus cuniculus worked out at 11300 nM; in the experiment listed under Rattus norvegicus [2], 12.5 nM.
Taken in the same sequence, the figures for `CC1(C)[C@@H]2[C@H](C/C=C\CCCC(=O)[O-])[C@@H](NS(=O)(=O)c3ccccc3)C[C@@H]21.[Na+]` (racemic) were 22, 44000 nM and 4.3 nM.
On the same counts, the results for `O=C([O-])CCC/C=C\C[C@H]1[C@@H]2S[C@@H]2C[C@@H]1NS(=O)(=O)c1ccccc1.[Na+]` (racemic) are 0, 178000 nM and 10 nM.
Taken in the same sequence, the figures for `O=C([O-])CCC/C=C\C[C@H]1[C@H]2C[C@H]2C[C@@H]1NS(=O)(=O)c1ccccc1.[Na+]` (racemic) were 67, 5300 nM and 8.3 nM.
In turn, `CC1(C)[C@H]2[C@H](C/C=C\CCCC(=O)[O-])[C@@H](NS(=O)(=O)c3ccccc3)C[C@H]21.[Na+]` (racemic) displayed a Relative agonist activity in the experiment filed under Rattus norvegicus [1] of 11. For the same compound, the IC50 in the experiment listed under Oryctolagus cuniculus is 432000 nM; in the experiment filed under Rattus norvegicus [2], 4.1 nM.
Taken in the same sequence, the figures for `O=C([O-])CCC/C=C\C[C@H]1[C@H]2S[C@H]2C[C@@H]1NS(=O)(=O)c1ccccc1.[Na+]` (racemic) were 74, 11300 nM and 2.9 nM.
